The values that follow come from patent US20230140798A1, “SYNTHETIC PEPTIDES DIRECTED AGAINST THE METABOTROPIC GLUTAMATE RECEPTOR 5” (Lactocore, Inc., priority 2020, published 2023).

Holding throughout (assay type): in vivo
Assay [1] relates to BALB/C mice. Put plainly: Porsolt Forced Swim test (two-day modification), mice. How it is done:
(§1) After an adaptation period, the test substance was intraperitoneally injected into mice. Behavioral parameters were measured in 30 minutes after injection. No more than one test was performed per day. The tests were administered as follows: day 1—the Open field test, day 8—the Elevated plus maze test, days 15-16—the Porsolt Forced Swim (two-day modification) test.
As part of this modification, two tests were carried out within two days. The installation is a transparent cylinder, 30 cm high, 10 cm in diameter and filled with water (water temperature 21° C.-23° C.) to a mark at a height of 25 cm. On the first day, each animal was dropped into the cylinder for 10 minutes. Behavioral parameters were not recorded. The animals are dropped into the cylinder for ten minutes again on the second day. The duration of active (vigorous movements with all paws) and passive (weak strokes with hind legs) swimming, as well as immobility (immobilization) (Porsolt et al. (1977). Behavioral despair in mice: a primary screening test for antidepressants. Arch Int Pharmacodyn Ther, 229(2), 327-336) are recorded. After each test the mice are placed in a heated cage until dry. The behavior indicators in this test are processed using the Real Timer Program developed by NPK “OpenScience” LLC, Russia. The sequence of events and their duration were recorded as well as basic statistical data processing was conducted.

The test system of assay [2] is zebrafish (Danio rerio). Put plainly: Light/Dark Box (LDB) test. How it is done: (§2) The tested substances were injected into the zebrafish intraperitoneally using an insulin syringe (0.5 ml, 30 g) 10 minutes before the test (15 min before for ketamine only, according to the literature data). The saline solution (0.9% NaCl) was used as a solvent. Anesthesia and immobilization of the animals were achieved by placing them in water at a temperature of 10° C. Control group fish received intraperitoneal injections of an equivalent volume of solvent, also after going through a pre-cooling procedure.
The setup for the Light/Dark preference test consisted of three main parts: a launch compartment, a light compartment made of white plastic, and a dark compartment made of black plastic. The bright lighting in these tests was provided by a lamp on a stand (LED lamp PL, 11 W, light flux≈600 Lm, about 500 Lx directly above the water surface), which was attached to the upper part of the aquarium.
(§3) The light/dark box (LDB) test was performed as previously described (Maximino et al. (2011). Pharmacological analysis of zebrafish (Danio rerio) scototaxis. Prog. Neuro-Psychopharmacol. Biol. Psychiatry. 35(2): 624-631). The zebrafish was placed in a light compartment of an LDB using a net, the camera was switched on simultaneously, and the behavior of the zebrafish was recorded for 5 minutes. The video was processed using RealTimer (OpenScience). During the processing of records, the residence time and the number of visits to the light and dark compartments of the test setup were recorded, as well as the latent period of visiting both compartments.

The subject of assay [3] is zebrafish (Danio rerio). Put plainly: Novel Tank (NT) test. How it is done: as §2
A base, back, and side walls of the aquarium were made of matte black plastic; the front panel (shorter wall) was made of transparent Plexiglas.
(§4) The Novel Tank (NT) test was performed as previously described (Maximino et al. (2013). Behavioral and neurochemical changes in the zebrafish leopard strain. G2B. 12(5): 576-582). A video recording (background shooting) was started 20-30 seconds before the zebrafish were placed in the test aquarium. The experimental zebrafish was placed in the tank using a net. The recording was being conducted for 5 minutes. The test was carried out using EthoVision XT software package (Noldus, Wageningen, Netherlands). The software registered the distance covered by the animal, its speed, the number of visits to the three conventional zones of the aquarium: “bottom,” “center,” and […] (lower, middle, and upper thirds of the aquarium, respectively), the time spent in these zones, and the latency of a visit to the middle and to the surface of the aquarium.

The subject of assay [4] is zebrafish (Danio rerio). Description: Overall behavioral effect in zebrafish (NT and LDB tests). The method, then: as §2, §4, §3
In assay [5] the test system is BALB/C mice. Description: Elevated Plus Maze test, mice. As to conditions: for behavior in EPM: 1 mg/kg i.p. The method, then: as §1
The test consists of two closed and two open arms located opposite each other (arm length 30 cm). The height of the sides of the closed arms is 15 cm. The entire installation is raised 70 cm above the floor. Open arms have a bright uniform illumination of 400 lux, closed −30-40 lux. The animal is placed in the center of the maze, with its head facing an open arm. Within five minutes, the Noldus EthoVision XT program (for behavior tracking) automatically records the following behavior parameters: total distance traveled (in cm), time spent moving (at a speed of more than five cm/s), time spent immobile (at a speed of less than 0.2 cm/s), average and maximum velocity, the number of episodes of mobility, and freezing. The same set of parameters, as well as the latent period and the time spent, are recorded for the central sector, the open and closed arms separately.

Assay [6] concerns BALB/C mice. Description: Open Field test, mice.
Excerpt: Eighty male BALB/C mice were used as subjects in this example. Body weight of each specimen at the beginning of the experiment was between about 18 grams and about 20 grams. All animals were free from species-specific pathogens (specific pathogen free (SPF) status according to the Federation of European Laboratory Animal Science Associations (FELASA) list, 2014). The animals were kept in conditions of free access to water and food. The room was air-conditioned (exchange rate not less than 15 r/h) with a 12 h:12 h light-dark cycle (lights on at 09:00 am), air temperature 20-24°±2° C. (possible fluctuations of the limits no more than 2° C. per day), 30-70% humidity. For the study, the mice were separated into six different groups and the tested substances were administered to the groups as shown in Table 1. Drugs were daily prepared in fresh saline, according to the dosage. For intranasal administration (i.n.), a volume of 20 μl was used, for intraperitoneal (i.p.)—200 μl.
as §1
The test is an arena with a diameter of 63 cm, illuminated by bright light (500 Lx). Recorded parameters: total distance traveled (in cm), time spent moving (at a speed of more than five cm/s), time spent immobile (at a speed of less than 0.2 cm/s), average and maximum velocity, the number of episodes of motor activity and freezing. The same set of parameters, as well as the latent period and the time spent are recorded for the central sector. Defecation, rears (setting the animal on its hind legs) are evaluated visually. The test is designed to assess the level of motor and exploratory activity.

Setting [7] is: 10 mg/kg i.p., 30 minutes after injection.

As to `COCCCC/C(=N\OCCN)c1ccc(C(F)(F)F)cc1` [FA, Fluvoxamine], in assay [1] (20 mg/kg i.p.), the “time of active swimming” value is 103.5 ± 15.1 s and the time spent immobile turned out to be 229 ± 19.8 s.

In the case of `CNC1(c2ccccc2Cl)CCCCC1=O` (stereo not drawn) [ketamine, reference compound], the “behavior in LDB test” value in assay [2] (20 mg/kg i.p.) is “only trends towards significant differences”. In assay [3] (20 mg/kg i.p.), the distance travelled result is given as “tendency towards increased distance travelled”, the “latency to the top of the NT” value was “did not alter”, the “time spent at the top of the tank” value was “significant increase” and the “time spent in the middle+top of the aquarium” value is “significant increase”. In assay [3] (20 mg/kg i.p.), the velocity entry is on record as “increased velocity”. Besides, the “overall behavioral effect in Danio rerio” value in assay [4] (20 mg/kg i.p.) is reported as “anxiolytic-like responses”.

With “AGAS: tetrapeptide AGAS, best combinatorial tetrapeptide according to the score values”, the freezing time in assay [5] (10 mg/kg i.p.) came out at 38.7 ± 9.6 s. Besides, in assay [5] (10 mg/kg i.p.), the “number of rears on the closed arms” value was 10.2±2.9. Also, the distance travelled in assay [5] (setting [7]) is recorded as 973±78.7 cm. The “number of center entries” value in assay [6] (setting [7]) came to 19.3±3. Also, the “behavior in LDB test” value in assay [2] (1 mg/kg i.p.) was “didn't show any prominent effects”; in assay [2] (5 mg/kg i.p.) it was “didn't show any prominent effects”; in assay [2] (20 mg/kg i.p.), “no differences between experimental and control groups”. Moreover, in assay [2] (10 mg/kg i.p.), the “latency to enter the light compartment” value was “decreased latency to enter the light compartment”. In addition, the “number of transitions between compartments of LDB” value in assay [2] (10 mg/kg i.p.) is reported as “increased number of transitions between compartments”. Further, the “behavior in NT test” value in assay [3] (1 mg/kg i.p.) and in assay [3] (5 mg/kg i.p.) was “didn't show any prominent effects” each time. Moreover, the velocity result is on record as “greater velocity” in assay [3] (10 mg/kg i.p.) and “trend towards significant reduction of velocity” in assay [3] (20 mg/kg i.p.). In assay [3] (20 mg/kg i.p.), the “time spent at the top of the tank” value is recorded as “decreased time spent at the top of the aquarium”. For the same compound, the “overall behavioral effect in Danio rerio” value in assay [4] (1 mg/kg i.p.) is “did not affect the behavior”; in assay [4] (5 mg/kg i.p.), “did not affect the behavior”; in assay [4] (10 mg/kg i.p.), “prominent anxiolytic-like activity”; in assay [4] (20 mg/kg i.p.) it was “anxiogenic-like or sedative effect”. The “behavior in FST” value in assay [1] (10 mg/kg i.p.) is “did not affect the behavior”.

In the case of “AYFE: tetrapeptide chosen as a negative control [reference compound]”, the “behavior in EPM” value in assay [5] is recorded as “didn't affect the behavior”. Further, the “time spent in the center” value in assay [6] (1 mg/kg i.p., 30 minutes after injection) worked out at 59.96±22.4. In addition, the entries for the “behavior in LDB test” value in assay [2] (1 mg/kg i.p.) and in assay [2] (10 mg/kg i.p.) were “did not alter the behavior” and “did not differ from control values”, respectively. Moreover, in assay [3] (1 mg/kg i.p.), the “behavior in NT test” value was “did not alter the behavior”. Moreover, in assay [3] (10 mg/kg i.p.), the “distance travelled (locomotor activity)” value was “attenuation of locomotor activity”. Also, the “overall behavioral effect in Danio rerio” value in assay [4] (1 mg/kg i.p.) is recorded as “did not show behavioral effects”; in assay [4] (10 mg/kg i.p.) it was “produced sedation”. The “time spent active swimming” value in assay [1] (1 mg/kg i.p.) is “increased”. Moreover, in assay [1] (1 mg/kg i.p.), the time spent immobile entry was “decreased”.

In the case of “DSGH: combinatorial tetrapeptide with the best occurrence and the LOGO analysis”, the “behavior in EPM” value in assay [5] is on record as “did not cause any changes of the behavioral parameters”. Moreover, the “behavioral parameters in Open Field test” value in assay [6] (1 mg/kg i.p.) is reported as “did not cause any changes of the behavioral parameters”. Also, the “number of transitions to light” value in assay [2] (0.5 mg/kg i.p.) is “decreased number of transitions to light”. Further, the “time spent in the light compartment” value is on record as “decreased time spent in the light compartment” in assay [2] (0.5 mg/kg i.p., trend p<0.1) and “trend towards increased time spent in the light compartment” in assay [2] (1 mg/kg i.p.). In addition, the “latency to enter the light” value in assay [2] (1 mg/kg i.p., trend p<0.10) is on record as “decreased latency to enter the light”. Moreover, in assay [2] (10 mg/kg i.p.), the “behavior in LDB test” value is recorded as “did not affect the behavioral parameters”. For the same compound, the “behavior in NT test” value in assay [3] (0.5 mg/kg i.p.) was “did not produced any behavioral effects”; in assay [3] (10 mg/kg i.p.) it was “did not affect the behavioral parameters”. The “overall behavioral effect in Danio rerio” value in assay [4] (0.5 mg/kg i.p.) is “anxiogenic-like effect”; in assay [4] (1 mg/kg i.p.), “potent anxiolytic-like effect”; in assay [4] (10 mg/kg i.p.) it was “failed to produce any behavioral changes”. The “behavioral parameters in FST” value in assay [1] (1 mg/kg i.p.) was “did not cause any changes of the behavioral parameters”.
